US10927078B2, “Modulators of indoleamine 2,3-dioxygenase” (GLAXOSMITHKLINE INTELLECTUAL PROPERTY DEVELOPMENT LIMITED, priority 2017, dated 2021)
Where two headings read alike, the source gives them in different places.

Target: indoleamine 2, 3-dioxygenase (IDO1) (Homo sapiens, UniProt P14902)
Experiment: PBMC IDO1 assay (kynurenine via mass spectrometry)
Format: cell-based
Procedure: Compounds of the present invention were tested via high-throughput cellular assays utilizing detection of kynurenine via mass spectrometry and cytotoxicity as end-points. For the mass spectrometry and cytotoxicity assays, human peripheral blood mononuclear cells (PBMC) (PB003F; AllCells®, Alameda, Calif.) were stimulated with human interferon-γ (IFN-γ) (Sigma-Aldrich Corporation, St. Louis, Mo.) and lipopolysaccharide from Salmonella minnesota (LPS) (Invivogen, San Diego, Calif.) to induce the expression of indoleamine 2, 3-dioxygenase (IDO1). Compounds with IDO1 inhibitory properties decreased the amount of kynurenine produced by the cells via the tryptophan catabolic pathway. Cellular toxicity due to the effect of compound treatment was measured using CellTiter-Glo® reagent (CTG) (Promega Corporation, Madison, Wis.), which is based on luminescent detection of ATP, an indicator of metabolically active cells.
In preparation for the assays, test compounds were serially diluted 3-fold in DMSO from a typical top concentration of 5 mM and plated at 0.5 μL in 384-well, polystyrene, clear bottom, tissue culture treated plates with lids (Greiner Bio-One, Kremsmünster, Austria) to generate 11-point dose response curves. Low control wells (0% kynurenine or 100% cytotoxicity) contained either 0.5 μL of DMSO in the presence of unstimulated (-IFN-γ/-LPS) PBMCs for the mass spectrometry assay or 0.5 μL of DMSO in the absence of cells for the cytotoxicity assay, and high control wells (100% kynurenine or 0% cytotoxicity) contained 0.5 μL of DMSO in the presence of stimulated (+IFN-γ/+LPS) PBMCs for both the mass spectrometry and cytotoxicity assays.
Frozen stocks of PBMCs were washed and recovered in RPMI 1640 medium (Thermo Fisher Scientific, Inc., Waltham, Mass.) supplemented with 10% v/v heat-inactivated fetal bovine serum (FBS) (Thermo Fisher Scientific, Inc., Waltham, Mass.), and 1× penicillin-streptomycin antibiotic solution (Thermo Fisher Scientific, Inc., Waltham, Mass.). The cells were diluted to 1,000,000 cells/mL in the supplemented RPMI 1640 medium. 50 μL of either the cell suspension, for the mass spectrometry assay, or medium alone, for the cytotoxicity assay, were added to the low control wells, on the previously prepared 384-well compound plates, resulting in 50,000 cells/well or 0 cells/well respectively. IFN-γ and LPS were added to the remaining cell suspension at final concentrations of 100 ng/ml and 50 ng/ml respectively, and 50 μL of the stimulated cells were added to all remaining wells on the 384-well compound plates. The plates, with lids, were then placed in a 37° C., 5% CO2 humidified incubator for 2 days.
Following incubation, the 384-well plates were removed from the incubator and allowed to equilibrate to room temperature for 30 minutes. For the cytotoxicity assay, CellTiter-Glo® was prepared according to the manufacturer's instructions, and 40 μL were added to each plate well. After a twenty minute incubation at room temperature, luminescence was read on an EnVision® Multilabel Reader (PerkinElmer Inc., Waltham, Mass.). For the mass spectrometry assay, 10 μL of supernatant from each well of the compound-treated plates were added to 40 μL of acetonitrile, containing 10 μM of an internal standard for normalization, in 384-well, polypropylene, V-bottom plates (Greiner Bio-One, Kremsmünster, Austria) to extract the organic analytes. Following centrifugation at 2000 rpm for 10 minutes, 10 μL from each well of the acetonitrile extraction plates were added to 90 μL of sterile, distilled H2O in 384-well, polypropylene, V-bottom plates for analysis of kynurenine and the internal standard on the RapidFire 300 (Agilent Technologies, Santa Clara, Calif.) and 4000 QTRAP MS (SCIEX, Framingham, Mass.). MS data were integrated using Agilent Technologies' RapidFire Integrator software, and data were normalized for analysis as a ratio of kynurenine to the internal standard. […]

[1] = human PBMC stimulated with IFN-γ and LPS, 2 days, kynurenine by mass spectrometry, recorded as pIC50, read-out: PBMC PXC50_ (converted)

Chain of indoleamine 2, 3-dioxygenase (IDO1) (P14902 whole entry): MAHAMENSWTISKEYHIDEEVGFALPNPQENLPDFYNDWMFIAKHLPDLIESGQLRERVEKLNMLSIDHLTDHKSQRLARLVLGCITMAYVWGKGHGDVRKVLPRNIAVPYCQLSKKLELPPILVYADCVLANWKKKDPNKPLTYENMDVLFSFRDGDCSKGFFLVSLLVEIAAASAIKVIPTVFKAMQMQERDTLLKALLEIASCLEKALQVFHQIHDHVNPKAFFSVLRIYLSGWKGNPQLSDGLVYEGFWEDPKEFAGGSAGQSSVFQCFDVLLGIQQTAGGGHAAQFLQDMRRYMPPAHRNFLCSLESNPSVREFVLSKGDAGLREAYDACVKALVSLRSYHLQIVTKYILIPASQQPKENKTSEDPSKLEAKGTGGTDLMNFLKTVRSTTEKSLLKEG

Structure (SMILES) | IC50 [1] [nM] | IC50 [nM]
COc1nccc(OC(=O)N2CCC(C(CC(C)C)NC(=O)c3ccc(F)cc3)CC2)c1F (stereo not shown) [Example 60, 3-fluoro-2-methoxypyridin-4-yl 4-{1-[(4-fluorophenyl)formamido]-3-methylbutyl}piperidine-1-carboxylate] | 50.1 | –
Cc1c(F)cccc1OC(=O)N1CCC(C(NC(=O)c2ccc(F)cc2)C2CC2)CC1 (stereo not shown) [Example 61, 3-fluoro-2-methylphenyl 4-{cyclopropyl[(4-fluorophenyl)formamido]methyl}piperidine-1-carboxylate] | 63.1 | –
CC(C)CC(NC(=O)c1ccc(F)cc1)C1CCN(C(=O)OCc2ccccc2)CC1 (stereo not shown) [Example 62, benzyl 4-{1-[(4-fluorophenyl)formamido]-3-methylbutyl}piperidine-1-carboxylate] | 63.1 | –
CC(C)CC(NC(=O)c1ccc(Cl)cc1)C1CCN(C(=O)OCc2nccs2)CC1 (stereo not shown) [Example 64, (1,3-thiazol-2-yl)methyl 4-{1-[(4-chlorophenyl)formamido]-3-methylbutyl}piperidine-1-carboxylate] | 79.4 | –
O=C(NC(c1ccncc1)C1CCN(C(=O)Oc2ccccc2)CC1)c1ccc(F)cc1 (stereo not shown) [Example 65, phenyl 4-{[(4-fluorophenyl)formamido](pyridin-4-yl)methyl}piperidine-1-carboxylate] | 100 | –
O=C(NC(C1CC1)C1CCN(C(=O)Oc2ccccc2)CC1)c1ccc(F)cc1 (stereo not shown) [Example 66, phenyl 4-{cyclopropyl[(4-fluorophenyl)formamido]methyl}piperidine-1-carboxylate] | 100 | –
CC(C)C[C@H](NC(=O)c1ccc(Cl)cc1)C1CCN(C(=O)Oc2ccccc2)CC1 [Example 67, phenyl 4-[(1S)-1-[(4-chlorophenyl)formamido]-3-methylbutyl]piperidine-1-carboxylate] | 100 | –
Cc1c(F)cccc1OC(=O)N1CCC([C@@H](C)NC(=O)c2ccc(Cl)cc2)CC1 [Example 68, 3-fluoro-2-methylphenyl 4-[(1R)-1-[(4-chlorophenyl)formamido]ethyl]piperidine-1-carboxylate] | 126 | –
CC(C)C[C@H](NC(=O)c1ccc(F)cc1)C1CCN(C(=O)Oc2ccccc2)CC1 [Example 69, phenyl 4-[(1S)-1-[(4-fluorophenyl)formamido]-3-methylbutyl]piperidine-1-carboxylate] | 126 | –
O=C(NC(C1CC1)C1CCN(C(=O)Oc2ccnc(F)c2)CC1)c1ccc(F)cc1 (stereo not shown) [Example 71, 2-fluoropyridin-4-yl 4-{cyclopropyl[(4-fluorophenyl)formamido]methyl}piperidine-1-carboxylate] | 158 | –
O=C(NC(c1ccncc1)C1CCN(C(=O)Oc2cccnc2F)CC1)c1ccc(F)cc1 (stereo not shown) [Example 72, 2-fluoropyridin-3-yl 4-{[(4-fluorophenyl)formamido](pyridin-4-yl)methyl}piperidine-1-carboxylate] | – | 158
O=C(NC(c1ccccc1)C1CCN(C(=O)Oc2ccccc2)CC1)c1ccc(C(F)(F)F)cc1 (stereo not shown) [Example 73, phenyl 4-[phenyl({[4-(trifluoromethyl)phenyl]formamido})methyl]piperidine-1-carboxylate] | 158 | –
CC(NC(=O)c1ccc(F)cc1)C1CCN(C(=O)Oc2ccccc2)CC1 (stereo not shown) [Example 74, phenyl 4-{1-[(4-fluorophenyl)formamido]ethyl}piperidine-1-carboxylate] | 158 | –
CC(C)C[C@H](NC(=O)c1ccccc1)C1CCN(C(=O)Oc2ccccc2)CC1 [Example 75, phenyl 4-[(1S)-3-methyl-1-(phenylformamido)butyl]piperidine-1-carboxylate] | 158 | –
COCCC[C@@H](NC(=O)c1ccc(F)cc1)C1CCN(C(=O)Oc2cccnc2F)CC1 [Example 76, 2-fluoropyridin-3-yl 4-[(1R)-1-[(4-fluorophenyl)formamido]-4-methoxybutyl]piperidine-1-carboxylate] | – | 158
O=C(NC(c1ccncc1)C1CCN(C(=O)Oc2ccccc2)CC1)c1ccccc1 (stereo not shown) [Example 77, phenyl 4-[(phenylformamido)(pyridin-4-yl)methyl]piperidine-1-carboxylate] | 200 | –
C#Cc1ccc(C(=O)NC(c2ccccc2)C2CCN(C(=O)OC(C)(C)C)CC2)cc1 (stereo not shown) [Example 78, tert-butyl 4-{[(4-ethynylphenyl)formamido](phenyl)methyl}piperidine-1-carboxylate] | 251 | –
CC(C)CC(NC(=O)c1ccc(F)cc1)C1CCN(C(=O)Oc2ccnc3ccccc23)CC1 (stereo not shown) [Example 79, quinolin-4-yl 4-{1-[(4-fluorophenyl)formamido]-3-methylbutyl}piperidine-1-carboxylate] | 316 | –
Cc1c(F)cccc1OC(=O)N1CCC([C@@H](CCCO)NC(=O)c2ccc(F)cc2)CC1 [Example 80, 3-fluoro-2-methylphenyl 4-[(1R)-1-[(4-fluorophenyl)formamido]-4-hydroxybutyl]piperidine-1-carboxylate] | 316 | –
O=C(NC(C1CC1)C1CCN(C(=O)Oc2ccncc2)CC1)c1ccc(F)cc1 (stereo not shown) [Example 81, pyridin-4-yl 4-{cyclopropyl[(4-fluorophenyl)formamido]methyl}piperidine-1-carboxylate] | 398 | –
CC(C)OCC(NC(=O)c1ccc(F)cc1)C1CCN(C(=O)Oc2ccccc2)CC1 (stereo not shown) [Example 82, phenyl 4-{1-[(4-fluorophenyl)formamido]-2-(propan-2-yloxy)ethyl}piperidine-1-carboxylate] | 398 | –
CC(C)CC(NC(=O)c1nnc(Cl)s1)C1CCN(C(=O)Oc2ccccc2)CC1 (stereo not shown) [Example 83, phenyl 4-{1-[(5-chloro-1,3,4-thiadiazol-2-yl)formamido]-3-methylbutyl}piperidine-1-carboxylate] | 501 | –
CC(C)CC(NC(=O)c1ccc(F)cc1)C1CCN(C(=O)OC2CCNc3ccccc32)CC1 (stereo not shown) [Example 84, 1,2,3,4-tetrahydroquinolin-4-yl 4-{1-[(4-fluorophenyl)formamido]-3-methylbutyl}piperidine-1-carboxylate] | 501 | –
CC(C)(C)OC(=O)N1CCC(C(NC(=O)c2cccc3cc[nH]c23)c2ccccc2)CC1 (stereo not shown) [Example 85, tert-butyl 4-{[(1H-indol-7-yl)formamido](phenyl)methyl}piperidine-1-carboxylate] | 631 | –
COc1cc(OC(=O)N2CCC(C(NC(=O)c3ccc(F)cc3)C3CC3)CC2)ccn1 (stereo not shown) [Example 86, 2-methoxypyridin-4-yl 4-{cyclopropyl[(4-fluorophenyl)formamido]methyl}piperidine-1-carboxylate] | 631 | –
O=C(NC(c1ccncc1)C1CCN(C(=O)Oc2cccnc2)CC1)c1ccc(F)cc1 (stereo not shown) [Example 87, pyridin-3-yl 4-{[(4-fluorophenyl)formamido](pyridin-4-yl)methyl}piperidine-1-carboxylate] | – | 631
O=C(NC(c1ccccc1)C1CCN(C(=O)Oc2ccccc2)CC1)c1ccc(C(F)(F)F)cn1 (stereo not shown) [Example 88, phenyl 4-[phenyl({[5-(trifluoromethyl)pyridin-2-yl]formamido})methyl]piperidine-1-carboxylate] | 631 | –
N#Cc1ccc(C(=O)NC(c2ccccc2)C2CCN(C(=O)Oc3ccccc3)CC2)nc1 (stereo not shown) [Example 89, phenyl 4-{[(5-cyanopyridin-2-yl)formamido](phenyl)methyl}piperidine-1-carboxylate] | 631 | –
